Data from PubChem BioAssay (NCI).
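Cultured in 96-well plates, cells were exposed to test compound for 48 hours across five concentrations. The concentration for 50% growth inhibition is given as GI50. TGI is the concentration that stops growth completely.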

What was measured:
Assay in all cases: NCI anticancer screen, dose series, 48 h
[1] = system: MALME-3M melanoma
[2] = system: TK-10 renal
[3] = system: RPMI-8226 leukemia
[4] = system: SK-MEL-5 melanoma
[5] = system: ACHN renal
[6] = system: HCT-116 colon
[7] = system: COLO 205 colon
[8] = system: IGROV1 ovarian
[9] = system: HOP-92 NSCLC
[10] = system: OVCAR-3 ovarian

Structure (SMILES)	TGI [1] [µM]	TGI [2] [µM]	TGI [3] [µM]	TGI [4] [µM]	TGI [5] [µM]	TGI [6] [µM]	TGI [7] [µM]	TGI [8] [µM]	TGI [9] [µM]	GI50 [1] [µM]	GI50 [2] [µM]	GI50 [3] [µM]	GI50 [4] [µM]	GI50 [5] [µM]	GI50 [6] [µM]	GI50 [7] [µM]	GI50 [8] [µM]	GI50 [10] [µM]	TGI [10] [µM]	GI50 [9] [µM]
CCOc1ccc(C(CN2CCOCC2)C(C)=O)cc1OC (configuration not stated)	37.5	31	83.5	35.2	27.3	43.5	19.6	49.6	35.7											
CC/C=C\C/C=C\C[C@H](O)C/C=C1/C(=O)C=C[C@@H]1C/C=C\CCCC(=O)OC	4.88	7.68	7.32	2.93	3.4	2.29	3.78	7.86	6.02	1.92	2.95	0.572	1.54	1.72	0.841	1.77	2.86	0.799	2.2	2.62
Cc1nc(-n2nc(-c3ccccc3)cc2-c2ccccc2)sc1C(/C=C/c1ccc([N+](=O)[O-])cc1)=N/NC(=O)c1ccncc1	> 100	82.9	> 100	63.7	> 100	21.8	58.4	> 100	54.8										42.5	
CC1=NN(C(=O)c2ccccc2O)C(=O)/C1=C/c1cccc([N+](=O)[O-])c1	> 100	> 100	> 100	> 100	> 100	> 67.7	> 100		> 100										> 47.5	
CCN(CC)CCN(C(=O)C(C)(C)C)c1ccccc1N	> 100	> 100	> 100	> 100	> 100	> 100		> 100	> 100										> 100	
